Patent US7217703B2, “8-(2-hydroxyphenoxy)octyldiethanolamine and salts thereof for delivery of active agents” (Emisphere Technologies, Inc., priority 2004, dated 2007)

Experiment: Oral absorption of Ibandronate in rats (urine Ibandronate, 16 h collection, GC/MS)
Format: in vivo, male Sprague-Dawley rats
Details: oral gavage, rat, urine 0-16 h post-dosing
Method: Oral absorption studies were performed in rats to evaluate the delivery of the bisphosphonate, Ibandronate, when co-administered with a delivery agent compound of the present invention. Sprague-Dawley rats were administered Ibandronate alone or in combination with a delivery agent compound by oral gavage. Urine samples were collected up to 16 hours post-dosing for Ibandronate quantitations. […]
Urine Ibandronate levels from treated rats were determined using a GC/MS method with a standard calibration range of 0–2000 ng/mL and a limit of quantitation (LOQ) of 2.5 ng/ml. Quality control (QC) samples were prepared fresh daily and were analyzed with samples from treated rats. […]
The amount of Ibandronate excreted in the urine is the dose response and was plotted as a straight line against the Ibandronate dose (linear dose-response relationship was assumed). The relative potency of the four delivery agent-containing Ibandronate formulations were calculated against the control formulations (without delivery agent) using a Student's t-test. […]

For `CCCCCN(C)CCC(O)(P(=O)(O)O)P(=O)(O)O` [Ibandronate], which “Mean urine Ibandronate concentration” value (Ibandronate 5 mg/kg alone) is on record?
The value was 426.8.

And the “Mean urine Ibandronate concentration” value (Ibandronate 15 mg/kg alone)?
The value was 4157.5.
